Experimental data taken from article PMC2897950 (Cellular microbiology, 2010).

Molecular target: T1, EhSir2a (EhSir2a-HH) (Entamoeba histolytica, UniProt C4LSH3)
T1 sequence (C4LSH3 1-383): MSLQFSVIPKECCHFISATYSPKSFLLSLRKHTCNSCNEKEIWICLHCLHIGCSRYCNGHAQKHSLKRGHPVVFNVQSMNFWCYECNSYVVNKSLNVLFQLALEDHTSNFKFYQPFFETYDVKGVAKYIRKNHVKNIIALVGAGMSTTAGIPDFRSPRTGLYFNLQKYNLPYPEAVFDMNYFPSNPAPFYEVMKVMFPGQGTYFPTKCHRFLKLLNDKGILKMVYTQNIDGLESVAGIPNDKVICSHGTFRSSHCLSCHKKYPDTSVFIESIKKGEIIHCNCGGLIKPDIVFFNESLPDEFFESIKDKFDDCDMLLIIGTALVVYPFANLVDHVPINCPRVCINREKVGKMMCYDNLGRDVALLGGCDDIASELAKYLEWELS
Test: fluorescent deacetylase assay
Assay type: biochemical
Conditions: 500 µM NAD+, 37 °C, 2 h; co-substrate of deacetylation

NC(=O)c1ccc[n+]([C@@H]2O[C@H](COP(=O)(O)OP(=O)(O)OC[C@H]3O[C@@H](n4cnc5c(N)ncnc54)[C@H](O)[C@@H]3O)[C@@H](O)[C@H]2O)c1 [NAD^+]
fluorescent deacetylase assay (Biomol kit), enzyme on Ni-NTA beads: EhSir2a showed high levels of deacetylase activity when NAD^+ was added
